Drawing on US11685746B2, “Heteroaryl compounds for treating Huntington's disease” (PTC THERAPEUTICS, INC., priority 2018, dated 2023), this text covers IC50 for 13 molecules.

The subject of this test is Endogenous Huntingtin Protein. Kind of test: Endogenous Huntingtin Protein Assay (MSD plates, MW1 or MAB2166 capture antibody). Type of test: cell-based. To be noted: Table 1. The protocol: Endogenous Huntingtin Protein Assay
Meso Scale Discovery (MSD) 96-well or 384-well plates were coated overnight at 4° C. with MW1 (expanded polyglutamine) or MAB2166 monoclonal antibody (for capture) at a concentration of 1 μg/mL in PBS (30 μL per well). Plates were then washed three times with 300 μL wash buffer (0.05% Tween-20 in PBS) and blocked (100 μL blocking buffer; 5% BSA in PBS) for 4-5 hours at room temperature with rotational shaking and then washed three times with wash buffer.
Samples (25 μL) were transferred to the antibody-coated MSD plate and incubated overnight at 4° C. After removal of the lysates, the plate was washed three times with wash buffer, and 25 μL of #5656S (Cell signaling; rabbit monoclonal) secondary antibody (diluted to 0.25 μg/mL in 0.05% Tween-20 in blocking buffer) was added to each well and incubated with shaking for 1 Hour at room temperature. Following incubation with the secondary antibody, the wells were rinsed with wash buffer after which 25 μL of goat anti-rabbit SULFO TAG secondary detection antibody (required aspect of the MSD system) (diluted to 0.25 μg/mL in 0.05% Tween-20 in blocking buffer) was added to each well and incubated with shaking for 1 hour at room temperature. After rinsing three times with wash buffer, 150 μL of read buffer T with surfactant (MSD) were added to each empty well, and the plate was imaged on a SI 6000 imager (MSD) according to manufacturers' instructions provided for 96- or 384-well plates.
One may read the IC50 as the point on the concentration scale where inhibition reaches its midpoint. High values mean weaker potency in that assay, low ones greater potency in that assay. As for `Cn1ncc(-c2ccc(-c3nc4sc(OC5CC(C)(C)NC(C)(C)C5)nc4s3)c(O)c2)c1F` [Compound 45, 5-(5-fluoro-1-methyl-1H-pyrazol-4-yl)-2-{5-[(2,2,6,6-tetramethylpiperidin-4-yl)oxy][1,3]thiazolo[5,4-d][1,3]thiazol-2-yl}phenol], the IC50 was at most 0.1 µM.

`CN(c1nc2sc(-c3ccc(-c4ccn(C)c(=O)c4)cc3O)nc2s1)C1CC(C)(C)NC(C)(C)C1` [Compound 46] displayed a half-inhibitory concentration (IC50) of at most 0.1 µM. With `CN(c1nc2sc(-c3ncc(-c4cn[nH]c4)cc3O)nc2s1)C1CCNCC1` [Compound 47, 2-{5-[methyl(piperidin-4-yl)amino][1,3]thiazolo[5,4-d][1,3]thiazol-2-yl}-5-(1H-pyrazol-4-yl)pyridin-3-ol], the IC50 was at most 0.1 µM.

Turning to `CN(c1nc2sc(-c3ccc(-c4cnn(C)c4F)cc3O)nc2s1)C1CC(C)(C)NC(C)(C)C1` [Compound 48, 5-(5-fluoro-1-methyl-1H-pyrazol-4-yl)-2-{5-[methyl(2,2,6,6-tetramethylpiperidin-4-yl)amino][1,3]thiazolo[5,4-d][1,3]thiazol-2-yl}phenol], the half-maximal inhibitory concentration (IC50) fell in the range of 0.1 to 0.5 µM. In the case of `[2H]C([2H])([2H])n1cc(-c2cnc(-c3nc4sc(N(C)C5CC(C)(C)NC(C)(C)C5)nc4s3)c(O)c2)cn1` [Compound 49, 5-[1-(^2H3)methyl-1H-pyrazol-4-yl]-2-{5-[methyl(2,2,6,6-tetramethylpiperidin-4-yl)amino][1,3]thiazolo[5,4-d][1,3]thiazol-2-yl}pyridin-3-ol], the concentration for half-maximal inhibition (IC50) was at most 0.1 µM.

Turning to `CCn1cc(-c2cnc(-c3nc4sc(N(C)C5CC(C)(C)NC(C)(C)C5)nc4s3)c(O)c2)cn1` [Compound 50, 5-(1-ethyl-1H-pyrazol-4-yl)-2-{5-[methyl(2,2,6,6-tetramethylpiperidin-4-yl)amino][1,3]thiazolo[5,4-d][1,3]thiazol-2-yl}pyridin-3-ol], the concentration for half-maximal inhibition (IC50) was in the range of 0.1 to 0.5 µM. Consider `[2H]C([2H])([2H])n1cc(-c2cnc(-c3nc4sc(N(C)C5CCNCC5)nc4s3)c(O)c2)cn1` [Compound 51, 2-{5-[methyl(piperidin-4-yl)amino][1,3]thiazolo[5,4-d][1,3]thiazol-2-yl}-5-[1-(^2H3)methyl-1H-pyrazol-4-yl]pyridin-3-ol], for which the IC50 was at most 0.1 µM. `CCn1cc(-c2cnc(-c3nc4sc(N(C)C5CCNCC5)nc4s3)c(O)c2)cn1` [Compound 52, 5-(1-ethyl-1H-pyrazol-4-yl)-2-{5-[methyl(piperidin-4-yl)amino][1,3]thiazolo[5,4-d][1,3]thiazol-2-yl}pyridin-3-ol]: the IC50 was 1 to 3 µM. For the molecule `CN(c1nc2sc(-c3ncc(-c4cn[nH]c4F)cc3O)nc2s1)C1CCNCC1` [Compound 53, 5-(5-fluoro-1H-pyrazol-4-yl)-2-{5-[methyl(piperidin-4-yl)amino][1,3]thiazolo[5,4-d][1,3]thiazol-2-yl}pyridin-3-ol], the IC50 is at most 0.1 µM. As to `CN(c1nc2sc(-c3ccc(-c4cn[nH]c4)cc3O)nc2s1)[C@H]1CCNC1` [Compound 54, 2-(5-{methyl[(3S)-pyrrolidin-3-yl]amino}[1,3]thiazolo[5,4-d][1,3]thiazol-2-yl)-5-(1H-pyrazol-4-yl)phenol], the concentration for half-maximal inhibition (IC50) is at most 0.1 µM. `CN(c1nc2sc(-c3ccc(-c4cn[nH]c4)cc3O)nc2s1)[C@@H]1CCNC1` [Compound 55, 2-(5-{methyl[(3R)-pyrrolidin-3-yl]amino}[1,3]thiazolo[5,4-d][1,3]thiazol-2-yl)-5-(1H-pyrazol-4-yl)phenol] gave a 50% inhibitory concentration (IC50) of at most 0.1 µM.

For `CN(c1nc2sc(-c3ncc(-c4cn[nH]c4)cc3O)nc2s1)[C@@H]1CCNC1` [Compound 56, 2-(5-{methyl[(3R)-pyrrolidin-3-yl]amino}[1,3]thiazolo[5,4-d][1,3]thiazol-2-yl)-5-(1H-pyrazol-4-yl)pyridin-3-ol], the half-inhibitory concentration (IC50) was at most 0.1 µM. Regarding `CN(c1nc2sc(-c3ncc(Br)cc3O)nc2s1)C1CCNCC1` [Compound 57, 5-bromo-2-{5-[methyl(piperidin-4-yl)amino][1,3]thiazolo[5,4-d][1,3]thiazol-2-yl}pyridin-3-ol], the IC50 fell in the range of 1 to 3 µM.
